Reference: PMC11189555, “Aryl amino acetamides prevent Plasmodium falciparum ring development via targeting the lipid-transfer protein PfSTART1” (Nature Communications, 2024)
Read-outs that look alike come from different tables or passages of the source.

Tested on: PopE-F10 M-833 resistant clone (PfSTART1 N330K)
Assay: Growth inhibition assay (72 h, LDH activity)
Type: cell-based, Plasmodium falciparum
Method in brief: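 Synchronised ring-stage 3D7-derived clones (0.3-0.6% parasitemia, 2% haematocrit) grown 72 h in compound serial dilutions, some with 0, 0.25 or 2.5 mM glucosamine. Growth read as LDH activity after freeze-thaw (Malstat/NBT, A650), normalised to DMSO and uninfected RBC; EC50 from variable-slope log(inhibitor) fit.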

SMILES: Cc1cc(Cl)c(S(=O)(=O)N2CCCC2)cc1OCC(=O)NC1CCCCC1 [M-833]
- Normalised to DMSO (M-833 0.0390625 uM, Pop E-F10 replicate 1): 109.097
- Normalised to DMSO (M-833 0.0390625 uM, Pop E-F10 replicate 3): 103.799
- Normalised to DMSO (M-833 0.078125 uM, Pop E-F10 replicate 1): 108.039
- Normalised to DMSO (M-833 0.078125 uM, Pop E-F10 replicate 3): 104.854
- Normalised to DMSO (M-833 0.15625 uM, Pop E-F10 replicate 1): 116.502
- Normalised to DMSO (M-833 0.15625 uM, Pop E-F10 replicate 3): 108.125
- Normalised to DMSO (M-833 0.3125 uM, Pop E-F10 replicate 1): 113.047
- Normalised to DMSO (M-833 0.3125 uM, Pop E-F10 replicate 3): 113.296
- Normalised to DMSO (M-833 0.625 uM, Pop E-F10 replicate 1): 116.996
- Normalised to DMSO (M-833 0.625 uM, Pop E-F10 replicate 3): 104.749
- Normalised to DMSO (M-833 1.25 uM, Pop E-F10 replicate 1): 105.924
- Normalised to DMSO (M-833 1.25 uM, Pop E-F10 replicate 3): 104.326
- Normalised to DMSO (M-833 2.5 uM, Pop E-F10 replicate 1): 101.551
- Normalised to DMSO (M-833 2.5 uM, Pop E-F10 replicate 3): 105.276
- Normalised to DMSO (M-833 5 uM, Pop E-F10 replicate 1): 94.8519
- Normalised to DMSO (M-833 5 uM, Pop E-F10 replicate 3): 96.4122
- Normalised to DMSO (M-833 10 uM, Pop E-F10 replicate 1): 72.2144
- Normalised to DMSO (M-833 10 uM, Pop E-F10 replicate 3): 80.0563
- EC50 (Plasmodium falciparum, 72 h, Supplementary Table 1, PopE-F10 (N330K)): > 20 µM
- inhibition at 0.0390625 µM (Plasmodium falciparum, M-833 0.0390625 uM, Pop E-F10 replicate 1, read-out: % Inhibition): -9.1%
- inhibition at 0.0390625 µM (Plasmodium falciparum, M-833 0.0390625 uM, Pop E-F10 replicate 3, read-out: % Inhibition): -3.8%
- inhibition at 0.078125 µM (Plasmodium falciparum, M-833 0.078125 uM, Pop E-F10 replicate 1, read-out: % Inhibition): -8.04%
- inhibition at 0.078125 µM (Plasmodium falciparum, M-833 0.078125 uM, Pop E-F10 replicate 3, read-out: % Inhibition): -4.85%
- inhibition at 0.15625 µM (Plasmodium falciparum, M-833 0.15625 uM, Pop E-F10 replicate 1, read-out: % Inhibition): -16.5%
- inhibition at 0.15625 µM (Plasmodium falciparum, M-833 0.15625 uM, Pop E-F10 replicate 3, read-out: % Inhibition): -8.13%
- inhibition at 0.3125 µM (Plasmodium falciparum, M-833 0.3125 uM, Pop E-F10 replicate 1, read-out: % Inhibition): -13%
- inhibition at 0.3125 µM (Plasmodium falciparum, M-833 0.3125 uM, Pop E-F10 replicate 3, read-out: % Inhibition): -13.3%
- inhibition at 0.625 µM (Plasmodium falciparum, M-833 0.625 uM, Pop E-F10 replicate 1, read-out: % Inhibition): -17%
- inhibition at 0.625 µM (Plasmodium falciparum, M-833 0.625 uM, Pop E-F10 replicate 3, read-out: % Inhibition): -4.75%
- inhibition at 1.25 µM (Plasmodium falciparum, M-833 1.25 uM, Pop E-F10 replicate 1, read-out: % Inhibition): -5.92%
- inhibition at 1.25 µM (Plasmodium falciparum, M-833 1.25 uM, Pop E-F10 replicate 3, read-out: % Inhibition): -4.33%
- inhibition at 2.5 µM (Plasmodium falciparum, M-833 2.5 uM, Pop E-F10 replicate 1, read-out: % Inhibition): -1.55%
- inhibition at 2.5 µM (Plasmodium falciparum, M-833 2.5 uM, Pop E-F10 replicate 3, read-out: % Inhibition): -5.28%
- inhibition at 5 µM (Plasmodium falciparum, M-833 5 uM, Pop E-F10 replicate 1, read-out: % Inhibition): 5.15%
- inhibition at 5 µM (Plasmodium falciparum, M-833 5 uM, Pop E-F10 replicate 3, read-out: % Inhibition): 3.59%
- inhibition at 10 µM (Plasmodium falciparum, M-833 10 uM, Pop E-F10 replicate 1, read-out: % Inhibition): 27.8%
- inhibition at 10 µM (Plasmodium falciparum, M-833 10 uM, Pop E-F10 replicate 3, read-out: % Inhibition): 19.9%
- inhibition at 0.0390625 µM (Plasmodium falciparum, Pop E-F10 replicate 1, M-833 0.0390625 uM): -3%
- inhibition at 0.078125 µM (Plasmodium falciparum, Pop E-F10 replicate 1, M-833 0.078125 uM): -0.769%
- inhibition at 0.15625 µM (Plasmodium falciparum, Pop E-F10 replicate 1, M-833 0.15625 uM): -1.15%
- inhibition at 0.3125 µM (Plasmodium falciparum, Pop E-F10 replicate 1, M-833 0.3125 uM): -1.42%
- inhibition at 0.625 µM (Plasmodium falciparum, Pop E-F10 replicate 1, M-833 0.625 uM): -0.0475%
- inhibition at 1.25 µM (Plasmodium falciparum, Pop E-F10 replicate 1, M-833 1.25 uM): 1.29%
- inhibition at 2.5 µM (Plasmodium falciparum, Pop E-F10 replicate 1, M-833 2.5 uM): 3.54%
- inhibition at 5 µM (Plasmodium falciparum, Pop E-F10 replicate 1, M-833 5 uM): 13.5%
- inhibition at 10 µM (Plasmodium falciparum, Pop E-F10 replicate 1, M-833 10 uM): 32.5%
- Normalised to DMSO (Pop E-F10 replicate 1, M-833 0.0390625 uM): 103
- Normalised to DMSO (Pop E-F10 replicate 1, M-833 0.078125 uM): 100.769
- Normalised to DMSO (Pop E-F10 replicate 1, M-833 0.3125 uM): 101.424
- Normalised to DMSO (Pop E-F10 replicate 1, M-833 0.625 uM): 100.047
- Normalised to DMSO (Pop E-F10 replicate 1, M-833 1.25 uM): 98.7091
- Normalised to DMSO (Pop E-F10 replicate 1, M-833 2.5 uM): 96.4594
- Normalised to DMSO (Pop E-F10 replicate 1, M-833 5 uM): 86.4832
- Normalised to DMSO (Pop E-F10 replicate 1, M-833 10 uM): 67.4893
- (av-uRBC) / (DMSO-uRBC) x100 (PopE-F10, 3.04832 nM, biological replicate 1): 111.434
- (av-uRBC) / (DMSO-uRBC) x100 (PopE-F10, 3.04832 nM, biological replicate 2): 114.392
- (av-uRBC) / (DMSO-uRBC) x100 (PopE-F10, 3.04832 nM, biological replicate 3): 116.409
- (av-uRBC) / (DMSO-uRBC) x100 (PopE-F10, 9.14495 nM, biological replicate 1): 115.6
- (av-uRBC) / (DMSO-uRBC) x100 (PopE-F10, 9.14495 nM, biological replicate 2): 114.392
- (av-uRBC) / (DMSO-uRBC) x100 (PopE-F10, 9.14495 nM, biological replicate 3): 132.26
- (av-uRBC) / (DMSO-uRBC) x100 (PopE-F10, 27.4348 nM, biological replicate 1): 114.804
- (av-uRBC) / (DMSO-uRBC) x100 (PopE-F10, 27.4348 nM, biological replicate 2): 115.461
- (av-uRBC) / (DMSO-uRBC) x100 (PopE-F10, 27.4348 nM, biological replicate 3): 121.608
- (av-uRBC) / (DMSO-uRBC) x100 (PopE-F10, 82.3045 nM, biological replicate 1): 112.716
- (av-uRBC) / (DMSO-uRBC) x100 (PopE-F10, 82.3045 nM, biological replicate 2): 116.595
- (av-uRBC) / (DMSO-uRBC) x100 (PopE-F10, 82.3045 nM, biological replicate 3): 121.195
- (av-uRBC) / (DMSO-uRBC) x100 (PopE-F10, 246.914 nM, biological replicate 1): 110.71
- (av-uRBC) / (DMSO-uRBC) x100 (PopE-F10, 246.914 nM, biological replicate 2): 117.042
- (av-uRBC) / (DMSO-uRBC) x100 (PopE-F10, 246.914 nM, biological replicate 3): 120.187
- (av-uRBC) / (DMSO-uRBC) x100 (PopE-F10, 740.741 nM, biological replicate 1): 108.694
- (av-uRBC) / (DMSO-uRBC) x100 (PopE-F10, 740.741 nM, biological replicate 2): 116.419
- (av-uRBC) / (DMSO-uRBC) x100 (PopE-F10, 740.741 nM, biological replicate 3): 115.329
- (av-uRBC) / (DMSO-uRBC) x100 (PopE-F10, 2222.22 nM, biological replicate 1): 107.392
- (av-uRBC) / (DMSO-uRBC) x100 (PopE-F10, 2222.22 nM, biological replicate 2): 111.175
- (av-uRBC) / (DMSO-uRBC) x100 (PopE-F10, 2222.22 nM, biological replicate 3): 110.489
- (av-uRBC) / (DMSO-uRBC) x100 (PopE-F10, 6666.67 nM, biological replicate 1): 97.5292
- (av-uRBC) / (DMSO-uRBC) x100 (PopE-F10, 6666.67 nM, biological replicate 2): 97.5177
- (av-uRBC) / (DMSO-uRBC) x100 (PopE-F10, 6666.67 nM, biological replicate 3): 73.4437
- (av-uRBC) / (DMSO-uRBC) x100 (PopE-F10, 20000 nM, biological replicate 1): 52.2279
